Test results published in PMC7011974, “Benzimidazole derivatives endowed with potent antileishmanial activity” (Journal of Enzyme Inhibition and Medicinal Chemistry, 2017).
Read-outs that look alike come from different tables or passages of the source.

Experiments:
[1] = test system: L. tropica promastigotes; assay: Antileishmanial activity on L. tropica promastigotes (MTT); type: cell-based, Leishmania tropica; conditions: for IC50: 72 h, read-out: IC50 (µM) L. tropica
[2] = test system: L. infantum promastigotes; assay: Antileishmanial activity on L. infantum promastigotes (MTT); type: cell-based, Leishmania infantum; conditions: for IC50: Leishmania infantum, 72 h, read-out: IC50 (µM) L. infantum
[3] = test system: human microvascular endothelial cell line (HMEC-1); assay: Cytotoxicity on HMEC-1 cells (MTT); type: cell-based; conditions: for IC50: cytotoxicity, HMEC-1 cells, MTT; for SI L. infantum (IC50 HMEC-1/IC50 L. infantum) / SI L. tropica (IC50 HMEC-1/IC50 L. tropica): selectivity index
[4] = Leishmania tropica, promastigotes, MTT, starred values mean of two experiments
[5] = fold potency versus miltefosine
[6] = percent of amphotericin B potency, calculated for each experiment
[7] = promastigotes of L. tropica and/or L. infantum
[8] = promastigotes, MTT, starred values mean of two experiments

IC50 [1, 4] [µM] | IC50 amph. B ×100/IC50 compd., L. tropica [1, 6] | IC50 ([2]; promastigotes, MTT) [µM] | IC50 amph. B ×100/IC50 compd., L. infantum [2, 6] | melting point [°C] | Structure (SMILES) | Ratio IC50 miltef./IC50 compd., L. tropica [1, 5] | Ratio IC50 miltef./IC50 compd., L. infantum [2, 5] | IC50 ([3]; Homo sapiens) [µM] | SI L. tropica (IC50 HMEC-1/IC50 L. tropica) [3] | Antileishmanial activity in words [1, 7] | other results
0.51 | 16.1 | 0.42 ± 0.14 | 37.1 | 144.7 to 147.4 | CCCCCCCCCCCCCCCc1n(C)c2ccccc2[n+]1CCC.[I-] [Compound 12, 1-Methyl-2-pentadecyl-3-propyl-1H-benzimidazol-3-ium iodide] | 84.8 | 74.4 | 0.73 ± 0.37 | 1.43 | – | SI L. infantum (IC50 HMEC-1/IC50 L. infantum) [3]: 1.74
> 16.2 | – | – | – | 108.1 to 109.3 | CCCCCCCCCCCc1nc2ccccc2[nH]1 [Compound 1, 2-Undecyl-1 H-benzimidazole] | – | – | 51 ± 7.5 | – | inactive | –
– | – | – | – | – | CCN(CC)CCCn1c(Cc2ccc(OC)cc2)nc2cc(C(C)=O)ccc21 [Compound 25] | – | – | – | – | – | Antileishmanial activity in words [1]: inactive; IC50 ([1]; Leishmania tropica): > 51 µM; IC50 [2]: > 51 µM
1.61 ± 0.15 | 5.1 | 3.26 ± 0.8 | 2.9 | 214.9 to 216.3 | CCCCCCCCCCCCCCCc1n(Cc2ccccc2)c2ccccc2[n+]1Cc1ccccc1.[Cl-] [Compound 15, 1,3-Dibenzyl-2-pentadecyl-1 H-benzimidazol-3-ium chloride] | 26.9 | 9.6 | 0.94 ± 0.17 | 0.60 | – | SI L. infantum (IC50 HMEC-1/IC50 L. infantum) [3]: 0.29
1.06 ± 0.54 | 9.1 | 0.84 ± 0.13 | 14.1 | 200 to 203 | CCCCCCCCCCCCCCCc1n(C)c2cc(Cl)c(Cl)cc2[n+]1C.[I-] [Compound 11, 5,6-Dichloro-1,3-dimethyl-2-pentadecyl-1 H-benzimidazol-3-ium iodide] | 40.8 | 37.2 | 1.68 ± 0.75 | 1.58 | – | SI L. infantum (IC50 HMEC-1/IC50 L. infantum) [3]: 2.00
– | – | – | – | 40.8 to 43.4 | CCCCCCCCCCCc1nc2ccccc2n1C [Compound 2, 1-Methyl-2-undecyl-1H-benzimidazole] | – | – | – | – | – | –
23.7 ± 8.54 | 0.75 | 28.5 ± 8.66 | 0.73 | – | CC(=O)c1ccc2c(c1)nc(Cc1ccccc1)n2C[C@@H]1CCCN2CCCC[C@H]12 [Compound 29] | 1.8 | 1.1 | – | – | – | –
> 27 | – | > 27 | – | 165 to 169 | C[n+]1c(-c2ccc(Cl)cc2)n(C[C@@H]2CCC[N+]3(C)CCCC[C@H]23)c2ccc(C(F)(F)F)cc21 (stereo partly drawn) [Compound 39, 2-(4-Chlorophenyl)-3-methyl-1-{[5-methylammonio-(1 S,9aR)-octahydroquinolizin-1-yl]-methyl}-5-trifluoromethyl-1 H-benzimidazol-3-ium diiodide] | – | – | – | – | inactive | –
– | – | – | – | – | CCCCCCCCCCCCCCCc1nc2ccccc2n1C[c-]1cccc1.[Fe+2].c1cc[cH-]c1 [Compound 16, 1-(Ferrocenylmethyl)-2-pentadecyl-1 H-benzimidazole] | – | – | – | – | inactive | IC50 [1, 8]: > 35 µM; IC50 [3]: > 35 µM
11.1 ± 2.73 | 1.07 | > 39.6 | – | 224.7 to 225.8 | CCCC(CCC)c1nc2ccccc2[nH]1 [Compound 18, 2-(Heptan-4-yl)-1 H-benzimidazole] | 3.9 | – | 65.1 ± 12.2 | 5.87 | – | –
> 58 | – | > 58 | – | 64.2 to 65.6 | CCCCCCCCCCCCCCCc1nc2ccccc2n1C [Compound 7, 1-Methyl-2-pentadecyl-1H-benzimidazole] | – | – | – | – | inactive | –
> 50 | – | > 50 | – | 94 to 98 | Cn1c(Cc2ccc(Cl)cc2)[n+](C)c2ccccc21.[I-] [Compound 21, 2-(4-Chlorobenzyl)-1,3-dimethyl-1 H-benzimidazol-3-ium iodide] | – | – | – | – | inactive | –
> 73 | – | – | – | 192.2 to 192.9 | CCCC(CCC)c1n(C)c2ccccc2[n+]1C.[I-] [Compound 20, 1,3-Dimethyl-2-(heptan-4-yl)-1 H-benzimidazol-3-ium iodide] | – | – | > 73 | – | inactive | –
1.68 | 4.9 | 0.28 ± 0.07 | 55.7 | 157.3 to 161.3 | CCCCCCCCCCCc1n(C)c2ccccc2[n+]1C.[I-] [Compound 3, 1,3-Dimethyl-2-undecyl-1 H-benzimidazol-3-ium iodide] | 25.8 | 111.6 | 2.64 ± 0.49 | 1.57 | – | SI L. infantum (IC50 HMEC-1/IC50 L. infantum) [3]: 9.43
5.05 ± 0.01 | 1.6 | 10.1 ± 4.9 | 0.93 | 88.8 to 94.2 | CCCCCCCCCCCCCCCc1nc2ccccc2[nH]1 [Compound 6, 2-Pentadecyl-1 H-benzimidazole] | 8.6 | 3.1 | > 37 | – | – | –
– | – | – | – | – | COc1ccc(Cc2nc3cc(C(C)=O)ccc3n2C[C@@H]2CCCN3CCCC[C@H]23)cc1 [Compound 31] | – | – | – | – | – | IC50 amph. B ×100/IC50 compd., L. tropica [1]: 0.74; Ratio IC50 miltef./IC50 compd., L. tropica [1]: 1.8; IC50 ([1]; Leishmania tropica): 23.9 ± 7.78 µM; IC50 amph. B ×100/IC50 compd., L. infantum [2]: 0.73; Ratio IC50 miltef./IC50 compd., L. infantum [2]: 1.1; IC50 [2]: 28.5 ± 4.47 µM
30 ± 10.3 | 0.40 | – | – | – | CCCC(CCC)c1nc2ccccc2n1C [Compound 19, 2-(Heptan-4-yl)-1-methyl-1 H-benzimidazole] | 1.4 | – | > 74 | >2.43 | – | –
33.9 ± 12.6 | 0.30 | 16.7 ± 7.07 | 0.70 | 60 | Cn1c(Cc2ccc(Cl)cc2)[n+](C)c2cc(C(F)(F)F)ccc21.[I-] [Compound 22, 2-(4-Chlorobenzyl)-1,3-dimethyl-5-trifluoromethyl-1 H-benzimidazol-3-ium iodide] | 1.3 | 1.9 | – | – | – | –

Structure (SMILES) | IC50 [1, 4] [µM] | IC50 amph. B ×100/IC50 compd., L. tropica [1, 6] | IC50 ([2]; promastigotes, MTT) [µM] | IC50 amph. B ×100/IC50 compd., L. infantum [2, 6] | melting point [°C] | Ratio IC50 miltef./IC50 compd., L. tropica [1, 5] | Ratio IC50 miltef./IC50 compd., L. infantum [2, 5] | IC50 ([3]; Homo sapiens) [µM] | SI L. tropica (IC50 HMEC-1/IC50 L. tropica) [3] | Antileishmanial activity in words [1, 7] | other results
CCCCCCCCCCCCCCCc1n(C[c-]2cccc2)c2ccccc2[n+]1C.[Fe+2].[I-].c1cc[cH-]c1 [Compound 17, 1-(Ferrocenylmethyl)-3-methyl-2-pentadecyl-1 H-benzimidazol-3-ium iodide] | – | 3.34 | – | – | – | 12.2 | – | – | 0.35 | – | IC50 [1, 8]: 3.56 ± 0.84 µM; IC50 [3]: 1.26 ± 0.24 µM
